Legend:
Test in all cases: Growth in liquid media in presence of test compound
Assay type in all cases: cell-based
[1] = tested on: Mycobacterium tuberculosis (H37Rv)
[2] = tested on: Candida albicans (ATCC 90028)
Description: (§1) Test organisms used were the bacterial strains Escherichia coli (ATCC 25922), Pseudomonas aeruginosa (ATCC 27853), Staphylococcus aureus (ATCC 25923), Streptococcus pyogenes (ATCC 19615), and Mycobacterium tuberculosis (H37Rv), and the yeast strain Candida albicans (ATCC 90028).
(§2) The liquid media used for growth were Luria-Bertani (Becton Dickinson, Sparks, Md.) and Mueller-Hinton (bio-Merieux, Paris, France) broths, but with Saburo medium for Candida and Middlebrook 7H9 medium (Difco) for mycobacteria.
(§3) The strains were grown at 37° C. and after suitable cell concentrations had been reached, 100 μL of each cell suspension was added to a tube with growth media and test compound. Cultivation of the bacteria was then carried out in the presence of each test compound at 37° C. and the tubes examined for visible growth. The compounds were tested at concentrations of either 500 mg/l, 50 mg/l or 5 mg/l. This assay was repeated twice.
(§4) Some compounds were only tested against some test organisms. It will be appreciated that the charge of these molecules will depend on the environment, some of the Examples are shown with a suitable counter ion, some without.

[3] = tested on: Pseudomonas aeruginosa (ATCC 27853)
Description: as §1, §2, §3, §4

[4] = tested on: Escherichia coli (ATCC 25922)
Description: as §1, §2, §3, §4

[5] = tested on: Streptococcus pyogenes (ATCC 19615)
Description: as §1, §2, §3, §4

[6] = tested on: Staphylococcus aureus (ATCC 25923)
Description: as §1, §2, §3, §4

| SMILES | Growth in the presence of test compound, M. tuberculosis ([1]; 5 mg/L) | Growth in the presence of test compound, M. tuberculosis ([1]; 50 mg/L) | Growth in the presence of test compound, M. tuberculosis ([1]; 500 mg/L) | Growth in the presence of test compound, C. albicans ([2]; 5 mg/L) | Growth in the presence of test compound, C. albicans ([2]; 50 mg/L) | Growth in the presence of test compound, C. albicans ([2]; 500 mg/L) | Growth in the presence of test compound, P. aeruginosa ([3]; 5 mg/L) | Growth in the presence of test compound, P. aeruginosa ([3]; 50 mg/L) | Growth in the presence of test compound, P. aeruginosa ([3]; 500 mg/L) | Growth in the presence of test compound, E. coli ([4]; 5 mg/L) | Growth in the presence of test compound, E. coli ([4]; 50 mg/L) | Growth in the presence of test compound, E. coli ([4]; 500 mg/L) | Growth in the presence of test compound, S. pyogenes ([5]; 5 mg/L) | Growth in the presence of test compound, S. pyogenes ([5]; 50 mg/L) | Growth in the presence of test compound, S. pyogenes ([5]; 500 mg/L) | Growth in the presence of test compound, S. aureus ([6]; 5 mg/L) | Growth in the presence of test compound, S. aureus ([6]; 50 mg/L) | Growth in the presence of test compound, S. aureus ([6]; 500 mg/L) |
| --- | --- | --- | --- | --- | --- | --- | --- | --- | --- | --- | --- | --- | --- | --- | --- | --- | --- | --- |
| Cl.Cl.NCCCC[C@@H](N)C(=O)NC[C@@H](Cc1ccc(OC(F)(F)F)cc1)B(O)O [Compound 43] | + | + | − | + | + | ± | + | + | − | + | + | − | + | + | − | + | + | − |
| CC1(C)C2CC3OB([C@@H](CNC(=O)[C@@H](N)CCCNC(=N)N)Cc4ccccc4)O[C@]3(C)C1C2 (stereo partly drawn) [Compound 11] | ± | − | − | + | + | − | + | + | − | + | + | − | + | + | − | + | + | − |
| N[C@@H](Cc1ccccc1)C(=O)NC[C@@H](Cc1ccccc1)[B-](F)(F)F.[K+] [Compound 42] | + | − | − | + | ± | ± | + | + | + | + | + | + | + | + | ± | + | + | + |
| CC1(C)C2CC3OB(C(CNC(=O)C(N)CCCCN)Cc4ccc(F)cc4)OC3(C)C1C2.Cl.Cl (stereo not drawn) [Compound 51] | + | − | − | + | + | − | + | + | − | + | + | − | + | + | − | + | + | − |
| CC(NC(=O)C(N)CCCCN)C(Cc1ccccc1)B1OC2CC3CC(C3(C)C)C2(C)O1 (stereo not drawn) [Compound 26] | − | − | − | + | + | − | + | + | − | + | + | − | + | + | − | + | + | − |

From patent US20150018311A1, “THERAPEUTIC BORON-CONTAINING COMPOUNDS” (priority 2012, published 2015)
